The record followed here is ChEMBL document CHEMBL5143615, “Novel 2-aryl-4-aryloxyquinoline-based fungistatics for Mucor circinelloides. Biological evaluation of activity, QSAR and docking study” (Bioorg Med Chem Lett, 2022).

Holding throughout (format): functional
Parameters in all cases: scale not given: the % may be the effect or the level left

The test system of experiment [1] is Mucor circinelloides. In words: Antifungal activity against Mucor circinelloides R7B wild type strain assessed as reduction in spore germination at 100 ug/ml relative to control. Particulars: dose 100 µg/ml.
For experiment [2], the system named is Mucor circinelloides. Nature of the experiment: Antifungal activity against Mucor circinelloides M5 strain assessed as reduction in spore germination at 100 ug/ml relative to control. Particulars: dose 100 µg/ml.
In experiment [3] the test system is Mucor circinelloides. Nature of the experiment: Antifungal activity against Mucor circinelloides R7B wild type strain assessed as reduction in spore germination at 150 ug/ml relative to control. Particulars: dose 150 µg/ml.
For experiment [4], the system named is Mucor circinelloides. In words: Antifungal activity against Mucor circinelloides M5 strain assessed as reduction in spore germination at 50 ug/ml relative to control. The following applies: dose 50 µg/ml.
The subject of experiment [5] is Mucor circinelloides. In words: Antifungal activity against Mucor circinelloides R7B wild type strain assessed as reduction in spore germination at 50 ug/ml relative to control. Particulars: dose 50 µg/ml.
The subject of experiment [6] is Mucor circinelloides. In words: Antifungal activity against Mucor circinelloides M5 strain assessed as reduction in spore germination at 150 ug/ml relative to control. Particulars: dose 150 µg/ml.
Experiment [7] concerns Mucor circinelloides. In words: Antifungal activity against Mucor circinelloides M5 strain assessed as reduction in spore germination at 25 ug/ml relative to control. The following applies: dose 25 µg/ml.
Experiment [8] concerns Mucor circinelloides. In words: Antifungal activity against Mucor circinelloides R7B wild type strain assessed as reduction in spore germination at 25 ug/ml relative to control. Particulars: dose 25 µg/ml.

On to `COc1ccc(-c2cc(Oc3ccccc3)c3ccccc3n2)cc1`, for which the figures for the Activity in experiment [1] and in experiment [2] were 94.3% and 92.1%, respectively.
Take `COc1cc(-c2ccccc2)nc2ccccc12`: the figures for the Activity in experiment [1] and in experiment [2] were 97.8% and 95.8%, respectively.
Taken in the same sequence, the figures for `Clc1ccc(-c2cc(Oc3ccccc3)c3ccccc3n2)cc1Cl` were 60.8% and 57.8%.
For `O=[N+]([O-])c1ccc(Oc2cc(-c3cccc(C(F)(F)F)c3)nc3ccccc23)cc1`, the Activity in experiment [1] was determined as 32.8%; in experiment [2] it was 29.7%.
With `Clc1ccc(-c2cc(Oc3ccccc3)c3ccccc3n2)cc1`, the Activity in experiment [1] amounted to 36.1%; in experiment [2], 32.3%.
`Cc1cccc(-c2cc(Oc3ccc([N+](=O)[O-])cc3)c3ccccc3n2)c1`: the Activity in experiment [1] and in experiment [2] was 98.1% each time.
As to `COc1ccc(-c2cc(OC)c3ccccc3n2)cc1OC`, the Activity came to 97.1% in experiment [1] and 96.2% in experiment [2].
Taken in the same sequence, the figures for `c1ccc(Oc2cc(-c3ccccc3)nc3ccccc23)cc1` were 97.4% and 97.9%.
Consider `COc1ccc(-c2cc(Oc3ccccc3)c3ccccc3n2)cc1OC`, for which the Activity is reported as 98.1% in experiment [1] and 98.2% in experiment [2].
For the compound `Cc1cc(C)cc(-c2ccc3ccccc3n2)c1`, the Activity in experiment [1] is listed as 84.9%; in experiment [2] it was 87.6%.
In the case of `FC(F)(F)c1ccc(Oc2cc(-c3cccc(Cl)c3)nc3ccccc23)cc1`, the figures for the Activity in experiment [1] and in experiment [2] were 42.2% and 38.3%, respectively.
`COc1cc(-c2cccc(C(F)(F)F)c2)nc2ccccc12`: the Activity is on record as 88.9% in experiment [1] and 89.7% in experiment [2].
For the compound `O=[N+]([O-])c1ccc(Oc2cc(-c3cccc(Cl)c3)nc3ccccc23)cc1`, the figures for the Activity in experiment [1] and in experiment [2] were 32.7% and 21.9%, respectively.
With `O=[N+]([O-])c1ccc(Oc2cc(-c3ccccc3)nc3ccccc23)cc1`, the figures for the Activity in experiment [1] and in experiment [2] were 98.1% and 98.2%, respectively.
Regarding `COc1cc(-c2ccc(Cl)cc2)nc2ccccc12`, the Activity in experiment [1] was 98.1%; in experiment [2], 97.3%.
`c1ccc(-c2ccc3ccccc3n2)cc1` [2-PHENYLQUINOLINE]: the values for the Activity in experiment [1] and in experiment [2] were 98.1% and 98.2%, respectively.
Regarding `c1ccc(Oc2cc(-c3ccc4c(c3)OCO4)nc3ccccc23)cc1`, the Activity in experiment [3] is 21.6%; in experiment [4], 52.8%; in experiment [5], 47.6%; in experiment [6], 23.4%; in experiment [1], 28.2%; in experiment [2], 29.5%. The Activity in experiment [7] was determined as 69.7%; in experiment [8], 74.2%.
Consider `Fc1ccc(-c2cc(Oc3ccccc3)c3ccccc3n2)cc1`, for which the Activity in experiment [1] is on record as 39.8%; in experiment [2], 38.6%.
In the case of `COc1cc(-c2ccc(C)cc2)nc2ccccc12`, the Activity in experiment [1] was 81.9%; in experiment [2] it was 84.9%.
Consider `COc1cc(-c2ccc(F)cc2)nc2ccccc12`, for which the Activity in experiment [3] was found to be 12.6%; in experiment [4] it was 47.9%; in experiment [5] it was 60.3%; in experiment [6] it was 14.9%; in experiment [1], 17.1%; in experiment [2] it was 20.6%. In addition, the Activity is 78.4% in experiment [7] and 73.1% in experiment [8].
`COc1cc(-c2ccc(Cl)c(Cl)c2)nc2ccccc12`: the values for the Activity in experiment [1] and in experiment [2] were 96.1% and 93.7%, respectively.
Taken in the same sequence, the figures for `O=[N+]([O-])c1ccc(Oc2cc(-c3ccc(Cl)c(Cl)c3)nc3ccccc23)cc1` were 83.9% and 85.9%.
Take `O=[N+]([O-])c1ccc(Oc2cc(-c3ccc(Cl)cc3)nc3ccccc23)cc1`: the values for the Activity in experiment [1] and in experiment [2] were 81.7% and 82.9%, respectively.
Taken in the same sequence, the figures for `Fc1cc(F)cc(-c2ccc3ccccc3n2)c1` were 57.5% and 59.5%.
`Clc1cccc(-c2cc(Oc3ccccc3)c3ccccc3n2)c1`: the results for the Activity in experiment [1] and in experiment [2] were 89.1% and 85.6%, respectively.
Take `COc1cc(-c2cc(F)cc(F)c2)nc2ccccc12`: the Activity came out at 32.8% in experiment [1] and 29.7% in experiment [2].
